Test results reported in US9926306B2, “Inhibition of MCL-1 and/or BFL-1/A1” (Dana-Farber Cancer Institute, Inc., priority 2012, dated 2018).
“Also recorded” adds a separate entry of the source.

Experiments:
MCL-1ΔNΔC = MCL-1ΔNΔC (Homo sapiens (Human), UniProt Q07820); assay: Competitive fluorescence polarization binding assay, MCL-1; conditions: Table A
Protocol: Here, we deployed MCL-1 SAHBA as a high fidelity screening tool to determine if its potency and specificity-of-action could be harnessed for small molecule discovery. […] A compilation of 71,296 small molecules was screened for the capacity to displace FITC-MCL-1 SAHBA from recombinant MCL-1ΔNΔC (aa 172-327) (FIG. 4).
Fluorescence polarization assays (FPA) were performed as previously described^38,39. […] Fluorescence polarization was measured at equilibrium and IC50 values calculated by nonlinear regression analysis of competitive binding curves using Prism software (Graphpad).

BFL-1/A1ΔC = BFL-1/A1ΔC (Homo sapiens (Human), UniProt Q16548); assay: Competitive fluorescence polarization binding assay, BFL-1/A1 (FITC-BID BH3); conditions: Table A
Sequence of BFL-1/A1ΔC (Q16548 1-153): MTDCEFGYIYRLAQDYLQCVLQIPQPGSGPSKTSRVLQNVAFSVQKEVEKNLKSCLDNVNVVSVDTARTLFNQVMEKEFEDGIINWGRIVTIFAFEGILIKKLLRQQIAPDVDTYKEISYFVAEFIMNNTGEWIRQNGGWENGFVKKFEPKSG
Description: FIG. 19A and FIG. 19B are graphs that show potent targeting of the anti-apoptotic protein BFL-1/A1 by MIM1. […] Thus, the complex between FITC-BID BH3 and BFL-1/A1ΔC was employed in a competitive FP assay to monitor the capacity of MIM1 to target BFL-1/A1ΔC.

BCL-XLΔC = BCL-XLΔC (Homo sapiens (Human), UniProt Q07817); assay: Competitive fluorescence polarization binding assay, BCL-XL; conditions: tracer FITC-BID BH3; read-out: IC50, displacement of FITC-BID BH3 from BCL-XLΔC
Sequence of BCL-XLΔC (Q07817 1-212): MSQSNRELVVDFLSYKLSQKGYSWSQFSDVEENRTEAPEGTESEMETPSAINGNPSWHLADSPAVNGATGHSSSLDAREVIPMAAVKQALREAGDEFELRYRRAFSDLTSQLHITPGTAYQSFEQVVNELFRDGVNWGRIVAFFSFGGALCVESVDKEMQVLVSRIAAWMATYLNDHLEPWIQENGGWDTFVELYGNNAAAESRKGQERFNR

[1] = test system: MCL-1-rescued p185+Arf−/−Mcl-1−/− CML cells; assay: Cell viability (CellTiter-Glo), MCL-1-dependent leukemia cells; assay type: cell-based, murine; conditions: Mus musculus; MCL-1-dependent cells, 24 h
Description: A challenges in developing and applying molecular antagonists for BCL-2 family anti-apoptotic proteins is the variable expression of multiple homologues. That is, a cancer cell will only be susceptible to a selective anti-apoptotic inhibitor if the cell is especially dependent on that particular survival protein. […] To test MIM1's activity and specificity in cancer cells, we employed murine p185^+Arf^−/−Mcl-1^−/− chronic myelogenous leukemia (CML) cells that are unable to survive unless reconstituted with MCL-1, reflecting a stringent system for assessing MCL-1 dependence.
p185^+Arf^−/− and MCL-1 or BCL-XL-rescued p185^+Arf^−/−Mcl^−/− cells were maintained in RPMI 1640 (ATCC) supplemented with 10% (v/v) FBS, 100 U/mL penicillin, 100 μg/mL streptomycin, 0.1 mM MEM non-essential amino acids and 50 μM β-mercaptoethanol. […] Cell viability was assayed at 24 h by addition of CellTiter-Glo reagent according to the manufacturer's protocol (Promega), and luminescence was measured using a SpectraMax M5 microplate reader (Molecular Devices). Caspase 3/7 activation was assayed at 8 h by addition of Caspase-Glo 3/7 reagent according to manufacturer's protocol (Promega), and luminescence measured using a SpectraMax M5 microplate reader. […]

[2] = test system: parental p185+Arf−/− CML cells; assay: Cell viability and CalcuSyn synergy, parental leukemia cells; assay type: cell-based, murine; conditions: Mus musculus; parental cells expressing both MCL-1 and BCL-XL; read-out: IC50, cytotoxicity
Protocol: (§1) p185^+Arf^−/− and MCL-1 or BCL-XL-rescued p185^+Arf^−/−Mcl^−/− cells were maintained in RPMI 1640 (ATCC) supplemented with 10% (v/v) FBS, 100 U/mL penicillin, 100 μg/mL streptomycin, 0.1 mM MEM non-essential amino acids and 50 μM β-mercaptoethanol. Mouse embryonic fibroblasts (MEFs) cells were maintained in DMEM high glucose (Invitrogen) supplemented with 10% (v/v) FBS, 100 U/mL penicillin, 100 μg/mL streptomycin, 2 mM L-glutamine, 50 mM HEPES, 0.1 mM MEM non-essential amino acids and 50 μM β-mercaptoethanol. […] Cell viability was assayed at 24 h by addition of CellTiter-Glo reagent according to the manufacturer's protocol (Promega), and luminescence was measured using a SpectraMax M5 microplate reader (Molecular Devices). Caspase 3/7 activation was assayed at 8 h by addition of Caspase-Glo 3/7 reagent according to manufacturer's protocol (Promega), and luminescence measured using a SpectraMax M5 microplate reader. Viability and caspase assays were performed in duplicate, repeated at least twice with independent cell cultures, and the data normalized to vehicle-treated control wells.

[3] = test system: wild-type or Bax−/−Bak−/− MEFs; assay: Cell viability (CellTiter-Glo), MEFs; assay type: cell-based, mouse; conditions: non-malignant fibroblasts, 24 h
Protocol: as §1

[4] = test system: wild-type or Bax−/−Bak−/− MEFs; assay: Caspase 3/7 activation (Caspase-Glo), MEFs; assay type: cell-based, mouse; conditions: 8 h
Protocol: as §1

Sequence of MCL-1ΔNΔC (Q07820 172-327, stated change not applied): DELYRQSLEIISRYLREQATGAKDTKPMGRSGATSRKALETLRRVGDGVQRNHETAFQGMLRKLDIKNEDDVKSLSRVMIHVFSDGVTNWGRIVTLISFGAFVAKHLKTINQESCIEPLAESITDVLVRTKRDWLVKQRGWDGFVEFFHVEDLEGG

SMILES | IC50 (MCL-1ΔNΔC) [µM] | IC50 (BFL-1/A1ΔC) [µM] | further results
Oc1ccc(/C=N/NC(=S)NC2CCCCC2)c(O)c1O [178-72] | 16 | 5.1 | –
COC(=O)Cc1cs/c(=N\C2CCCCC2)n1/N=C/c1ccc(O)c(O)c1O [178-97] | 9.5 | 1 | –
CC(C)(C)c1cs/c(=N\C2CCCCC2)n1/N=C/c1cc(O)c(O)cc1O [183-87] | 0.151 | 0.042 | –
CC(C)(C)c1cs/c(=N\C2CCCCC2)n1/N=C/c1cc(O)c(O)c(O)c1 [183-88] | 1.16 | 0.759 | –
CC(C)(C)c1cs/c(=N\C2CCCCC2)n1/N=C/c1ccc(O)c(O)c1 [183-65] | 17.7 | 2.1 | –
Oc1ccc(/C=N/n2c(-c3cccs3)cs/c2=N\C2CCCCC2)c(O)c1O [183-76] | 11 | 0.388 | –
COc1cc(/C=N/n2c(C)cs/c2=N\C2CCCCC2)cc(OC)c1OC [183-85] | 7.6 | – | –
CCOc1ccccc1/N=c1\scc(C)n1/N=C/c1ccc(O)c(O)c1O [183-24] | 16 | 2.5 | –
CCc1cs/c(=N\C2CCCCC2)n1/N=C/c1ccc(O)c(O)c1O [178-82] | 2.1 | 1.2 | –
CC(C)C(C)/N=C1\SCC(Br)(C2CC2)N1/N=C/c1cc(O)c(O)cc1O (stereo not drawn) [187-19] | 0.891 | – | –
Oc1ccc(/C=N/n2c(C3CC3)cs/c2=N\c2ccccc2)c(O)c1O [183-21] | 4.3 | 0.719 | –
Cc1cs/c(=N\C2CCCC2)n1/N=C/c1ccc(O)c(O)c1O [183-19] | 3.1 | 0.631 | –
Cc1cs/c(=N\C2CCCCC2)n1/N=C/c1cc(O)c(O)c(O)c1 [183-84] | 13 | 0.316 | –
Oc1ccc(/C=N/N2/C(=N/C3CCCCC3)SCC2(O)C(F)(F)F)c(O)c1O (stereo not drawn) [183-51] | 2.9 | 1.2 | –
CCOC(=O)c1s/c(=N\C2CCCCC2)n(/N=C/c2ccc(O)c(O)c2O)c1C [183-91] | 11.8 | 0.381 | –
Cc1cs/c(=N\C2CCCCC2)n1/N=C/c1ccc(O)c(O)c1 [183-38] | 12 | 0.282 | –
Cc1s/c(=N\C2CCCCC2)n(/N=C/c2ccc(O)c(O)c2O)c1C [183-8] | 1.5 | 0.712 | –
Cc1cs/c(=N\C2CC3CCC2C3)n1/N=C/c1cc(O)c(O)cc1O (stereo not drawn) [183-82] | 1 | 0.169 | –
Cc1s/c(=N\C2CCCCC2)n(/N=C/c2cc(O)c(O)cc2O)c1C [183-89] | 0.78 | 0.581 | –
Cc1cs/c(=N\c2ccccc2)n1/N=C/c1ccc(O)c(O)c1O [183-20] | – | 0.264 | –
CC(C)(C)c1cs/c(=N\C2CCCCC2)n1/N=C/c1ccc(O)c(O)c1O [183-44] | 0.54 | 0.914 | –
Cc1cs/c(=N\C2CCCCC2)n1/N=C/c1ccc(O)c(O)c1O [MIM1, 4-((E)-(((Z)-2-(cyclohexylimino)-4-methylthiazol-3(2H)-yl)imino)methyl)benzene-1,2,3-triol] | – | – | IC50 (BCL-XLΔC): > 50 µM; IC50 [1]: 4.2 µM; IC50 [2]: 10.6 µM; effect on viability / toxicity [3]: little to no toxicity; also recorded: no significant effect; caspase 3/7 activation [4]: no observed caspase 3/7 activation
Oc1ccc(/C=N/n2c(C3CC3)cs/c2=N\C2CCCCC2)c(O)c1O [178-83] | 0.91 | 0.785 | –
CC(C)(C)Cc1cs/c(=N\C2CCCCC2)n1/N=C/c1ccc(O)c(O)c1O [183-70] | 1.97 | 1.5 | –
Oc1ccc(/C=N/n2c(C3CC3)cs/c2=N\C2CCCC2)c(O)c1O [183-22] | 2.4 | 0.601 | –
Oc1ccc(/C=N/n2c3c(s/c2=N\C2CCCCC2)CCCC3)c(O)c1O [183-81] | 4.5 | 1.3 | –

More lines, main results first:

IC50 (MCL-1ΔNΔC) [µM] | IC50 (BFL-1/A1ΔC) [µM] | SMILES | further results
0.123 | 0.026 | Oc1cc(O)c(/C=N/n2c(C3CC3)cs/c2=N\C2CCCCC2)cc1O [187-7] | –
– | 0.735 | Cc1s/c(=N\C2CCN(C(=O)OC(C)(C)C)CC2)n(/N=C/c2ccc(O)c(O)c2O)c1C1CC1 [187-50] | –
0.587 | 0.117 | Cc1s/c(=N\C2CCCCC2)n(/N=C/c2cc(O)c(O)cc2O)c1C1CC1 [187-44] | –
– | 1.7 | Oc1ccc(/C=N/n2c(-c3cccs3)cs/c2=N\c2ccccc2)c(O)c1O [190-18] | –
– | 3 | Oc1ccc(/C=N/n2c(C3CC3)cs/c2=N\c2ccccc2)cc1O [187-95] | –
4.3 | 1.5 | CC(C)C(C)/N=c1\scc(C(C)(C)C)n1/N=C/c1ccc(O)c(O)c1O (stereo not drawn) [187-27] | –
13.3 | 8.1 | Cc1cs/c(=N\c2ccccc2)n1/N=C/c1ccc(O)c(O)c1 [187-82] | –
– | 2.8 | CCc1s/c(=N\C2CCCCC2)n(/N=C/c2ccc(O)c(O)c2O)c1C(C)(C)C [187-37] | –
2.7 | 1.1 | Cc1cs/c(=N\CC2CCCCC2)n1/N=C/c1ccc(O)c(O)c1O [187-5] | –
1.41 | 0.144 | Cc1cs/c(=N\C2CCCc3ccccc32)n1/N=C/c1cc(O)c(O)cc1O (stereo not drawn) [187-22] | –
1.78 | 2.1 | Cc1cs/c(=N\C(C)C(C)C)n1/N=C/c1ccc(O)c(O)c1O (stereo not drawn) [187-20] | –
4.36 | 1.1 | Cc1cs/c(=N\C2CCCc3ccccc32)n1/N=C/c1ccc(O)c(O)c1O (stereo not drawn) [187-23] | –
– | 0.365 | Oc1ccc(/C=N/n2c(C3CC3)cs/c2=N\c2ccccc2)c(O)c1O [190-20] | –
– | 31 | Cc1cs/c(=N\C2CCCCC2)n1/N=C/c1c(O)cc(O)cc1O [187-81] | –
– | 9.1 | CC(C)(C)c1cs/c(=N\C2CCCCC2)n1/N=C/c1cc(O)c(O)cc1F [187-10] | –
0.937 | 0.272 | Cc1cs/c(=N\C2CC3CCC2C3)n1/N=C/c1cc(O)c(O)cc1O (stereo not drawn) [187-79] | –
– | 8.4 | Cc1cs/c(=N\C2CCCCC2)n1/N=C/c1cc(O)c(O)cc1F [187-8] | –
– | 15 | COc1cc(/C=N/n2c(C(C)(C)C)cs/c2=N\C2CCCCC2)c(O)cc1O [190-4] | –
7.3 | 1.1 | CC(C)C(C)/N=c1\scc(C2CC2)n1/N=C/c1cc(O)c(O)cc1O (stereo not drawn) [187-39] | –
